The record followed here is patent US20190380912A1, “EXCIPIENT FREE GLUCOSAMINE TABLETS AND METHOD OF MAKING” (Purepharm Inc., priority 2018, published 2019).

The data set can be described thus: Friability and hardness of dried tablets on handling. Type of data set: physicochemical. The settings on record: Pellet Press, dry powder without water.

As to `CC(=O)N[C@H]1C(O)O[C@H](CO)[C@@H](O)[C@@H]1O` (stereo partly shown) [N-Acetylglucosamine], the compressibility result is recorded as “did not compress at all”.
